Key:
DIPGX7 [1] = H3.3 K27M diffuse intrinsic pontine glioma line; assay: EC50 (inflection of fitted growth-inhibition curve) (log10 M)
In short: (§1)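 Treatment used a pin tool and a 10-point threefold dilution series, mean top concentration 35 μM, run in triplicate on patient-derived pHGG/DIPG cell lines and astrocyte controls in 1% Geltrex-coated 384-well plates. Plates were kept at 37 °C, 5% CO2 for 7 days (iAstro: 3 days). Log2-transformed CellTiter-Glo luminescence was scaled per plate to % activity between negative (solvent) and positive control wells and pooled before fitting. EC50 and maximal response (yFin) came from the three- or four-parameter log-logistic fit chosen by lowest AICc.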

iAstro [2] = astrocyte control; assay: as above
In short: as §1

DIPGX9 = diffuse intrinsic pontine glioma line; assay: as above
In short: as §1

HABS [3] = astrocyte control; assay: as above
In short: as §1

SUDIPGVI = diffuse intrinsic pontine glioma line; assay: as above
In short: as §1

HGGX6 = H3.3 G34R paediatric high-grade glioma line; assay: as above
In short: as §1

SUDIPGXIX = diffuse intrinsic pontine glioma line; assay: as above
In short: as §1

SUDIPGXVII = diffuse intrinsic pontine glioma line; assay: as above
In short: as §1

SUDIPGIV = diffuse intrinsic pontine glioma line; assay: as above
In short: as §1

SUDIPGXIII = diffuse intrinsic pontine glioma line; assay: as above
In short: as §1

DIPGX37 = H3.3 K27M diffuse intrinsic pontine glioma line; assay: as above
In short: as §1

SUDIPGXXI = diffuse intrinsic pontine glioma line; assay: as above
In short: as §1

HGGX2 = paediatric high-grade glioma line; assay: as above
In short: as §1

DIPGX29 = H3.3 K27M diffuse intrinsic pontine glioma line; assay: as above
In short: as §1

HGGX42 = H3.3 G34R paediatric high-grade glioma line; assay: as above
In short: as §1

HGGX39 = paediatric high-grade glioma line; assay: as above
In short: as §1

DIPGX7 [4] = assay: maximal growth inhibition (yFin) relative to DMSO / staurosporine; higher = more efficacious
In short: as §1

iAstro [5] = assay: as above
In short: as §1

HABS [6] = assay: as above
In short: as §1

Row | Compound | EC50 (log10 M) (DIPGX7 [1]) | EC50 (log10 M) (iAstro [2]) | EC50 (log10 M) (DIPGX9) | EC50 (log10 M) (HABS [3]) | EC50 (log10 M) (SUDIPGVI) | EC50 (log10 M) (HGGX6) | EC50 (log10 M) (SUDIPGXIX) | EC50 (log10 M) (SUDIPGXVII) | EC50 (log10 M) (SUDIPGIV) | EC50 (log10 M) (SUDIPGXIII) | EC50 (log10 M) (DIPGX37) | EC50 (log10 M) (SUDIPGXXI) | EC50 (log10 M) (HGGX2) | EC50 (log10 M) (DIPGX29) | EC50 (log10 M) (HGGX42) | EC50 (log10 M) (HGGX39) | maximal growth inhibition (DIPGX7 [4]) | maximal growth inhibition (iAstro [5]) | maximal growth inhibition (HABS [6])
1 | CN1CCCN(C(=O)c2cccc(-c3ccc(/C=C4/C(=O)Nc5ccc(Cl)cc54)o3)c2)CC1 [CX-6258] | -5.42 | -5.49 | -5.34 | -5.1 | -5.2 | -5.24 | -5.48 | -5.25 | -5.37 | -5.08 | -5.76 | -7.11 | -5.51 | -5.6 | -5.75 | -5.28 | 110% | 102% | 112%
2 | COc1cccc2c1C(=O)c1c(O)c3c(c(O)c1C2=O)C[C@@](O)(C(=O)CO)C[C@@H]3O[C@H]1C[C@H](N)[C@H](O)[C@H](C)O1 [DOXORUBICIN] | -6.06 | -7.21 | -6.92 | -7.02 | -5.86 | -5.69 | -7.02 | -5.78 | -6.59 | -5.71 | -6.4 | -8.4 | -6.74 | -5.63 | -6.5 | -5.68 | 103% | 26.4% | 69.6%
3 | CCCCc1oc2ccc(NS(C)(=O)=O)cc2c1C(=O)c1ccc(OCCCN(CCCC)CCCC)cc1 [DRONEDARONE] | -5.35 | -5.29 | -5.04 | -4.77 | -4.87 | -5.14 | -5.12 | -4.97 | -5.15 | -4.89 | -5.38 | -5.77 | -5.19 | -5.42 | -5.41 | -5.01 | 120% | 104% | 119%
4 | CCOC(=O)CCNc1cc(N2CCc3ccccc3CC2)nc(-c2ccccn2)n1 [GSK-J4] | -5 | -5.51 | -4.99 | -4.98 | -4.9 | -4.85 | -4.97 | -4.99 | -5.01 | -4.82 | -4.9 | -5.9 | -5 | -4.87 | -4.87 | -4.98 | 46.7% | 69.4% | 72.9%
5 | O=C(c1ccc(Nc2nccc(-c3cc4ccccc4s3)n2)cc1)N1CCC(N2CCCC2)CC1 [IKK 16] | -5.27 | -5.16 | -4.84 | -4.75 | -4.85 | -4.83 | -4.87 | -4.85 | -5.15 | -4.69 | -5.52 | -5.37 | -5.4 | -5.53 | -5.62 | -4.92 | 108% | 94.4% | 124%
6 | CC(C)C[C@H](NC(=O)CNC(=O)c1cc(Cl)ccc1Cl)B(O)O [IXAZOMIB] | -7.71 | -7.92 | -7.68 | -7.43 | -7.33 | -7.27 | -7.71 | -7.05 | -7.6 | -7.52 | -7.94 | -7.9 | -6.73 | -6.63 | -7.31 | -7.57 | 81.4% | 67.4% | 84.1%
7 | Cc1c(C2CCN(CCc3ccccc3)CC2)noc1-c1ccc(Cl)cc1 [L-741,742] | -4.84 | -5 | -5.35 | -4.83 | -4.81 | -4.87 | -4.84 | -4.87 | -4.89 | -4.71 | -4.93 | -4.91 | -4.83 | -4.99 | -4.88 | -4.87 | 104% | 43.2% | 31.3%
8 | C[C@@]12OC(=O)[C@]1([C@@H](O)[C@@H]1C=CCCC1)NC(=O)[C@@H]2CCCl [MARIZOMIB] | -6.48 | -8.18 | -6.99 | -6.2 | -7.2 | -6.1 | -6.19 | -6.26 | -7.41 | -6.99 | -6.54 | -7.88 | -7.46 | -7.05 | -6.62 | -6.39 | 101% | 89.6% | 54.9%
9 | Nc1ccccc1NC(=O)c1ccc(CNc2nccc(-c3cccnc3)n2)cc1 [MOCETINOSTAT] | -5.42 | -5.85 | -6.26 | -5.43 | -5.98 | -5.51 | -5.46 | -5.48 | -5.43 | -5.46 | -5.51 | -6.53 | -5.76 | -5.81 | -5.52 | -5.37 | 104% | 38.2% | 94.6%
10 | O=C(Nc1ccc([N+](=O)[O-])cc1Cl)c1cc(Cl)ccc1O [NICOLSAMIDE] | -5.77 | -5.43 | -5.44 | -5.14 | -5.47 | -5.18 | -5.31 | -5.39 | -5.58 | -5.59 | -5.74 | -6.1 | -5.27 | -5.58 | -5.17 | -5.17 | 86% | 34.7% | 82.4%

From the supplement of paper PMC8253809
